Results reported in patent US9511073B2, “Aromatic amides and uses thereof” (TAXIS Pharmaceuticals, Inc., priority 2011, dated 2016).
≈ marks a conversion by molar mass, not a printed value.

Each compound was assayed on Staphylococcus aureus (Isolate ID ATCC 29213) (assay: Bacterial assay: MIC by broth microdilution or agar dilution (CLSI), S. aureus ATCC 29213). Details: Staphylococcus aureus, ATCC29213, read-out: S. aureus MIC (μg/mL) Activity Range, S. aureus (ATCC29213).
Assay type: cell-based
In short: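 MICs by CLSI broth microdilution or agar dilution against S. aureus ATCC 29213 and its FtsZ-G196A mutant. Values reported as ranges: A ≤0.25 μg/mL, B >0.25–1.0, C >1.0–16, D >16 μg/mL.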

SMILES | MIC [µg/mL]
C=CCc1oc(C(COC(C)=O)Oc2ccc(F)c(C(N)=O)c2F)nc1-c1ccc(C(F)(F)F)cc1 (stereo not drawn) [Compound 63, 2-(5-allyl-4-(4-(trifluoromethyl)phenyl)oxazol-2-yl)-2-(3-carbamoyl-2,4-difluorophenoxy)ethyl acetate] | 1 to 16
NCC(Oc1ccc(F)c(C(N)=O)c1F)c1nc(-c2ccc(C(F)(F)F)cc2)c(Br)o1 (stereo not drawn) [Compound 290, 3-(2-amino-1-(5-bromo-4-(4-(trifluoromethyl)phenyl)oxazol-2-yl)ethoxy)-2,6-difluorobenzamide] | 1 to 16 (≈ 1.98 to 31.6 µM)
CCCc1oc(C(C)Oc2ccc(F)c(C(N)=O)c2F)nc1-c1ccc(Cl)cc1 (stereo not drawn) [Compound 19] | 0.25 to 1 (≈ 0.594 to 2.38 µM)
CNC(=O)CCC(Oc1ccc(F)c(C(N)=O)c1F)c1nc(-c2ccc(C(F)(F)F)cc2)c(Br)o1 (stereo not drawn) [Compound 93, 3-(1-(5-bromo-4-(4-(trifluoromethyl)phenyl)oxazol-2-yl)-4-(methylamino)-4-oxobutoxy)-2,6-difluorobenzamide] | 0.25 to 1 (≈ 0.445 to 1.78 µM)
NC(=O)c1c(F)ccc(O[C@H](CO)c2nc3cc(Cl)cnc3s2)c1F [Compound 266B, (R)-3-(1-(6-chlorothiazolo[5,4-b]pyridin-2-yl)-2-hydroxyethoxy)-2,6-difluorobenzamide] | 1 to 16 (≈ 2.59 to 41.5 µM)
NC(=O)CC(Oc1ccc(F)c(C(N)=O)c1F)c1nc(-c2ccc(C(F)(F)F)cc2)c(Br)o1 (stereo not drawn) [Compound 96, 3-(3-amino-1-(5-bromo-4-(4-(trifluoromethyl)phenyl)oxazol-2-yl)-3-oxopropoxy)-2,6-difluorobenzamide] | 1 to 16 (≈ 1.87 to 29.9 µM)
COCCn1cncc1CNC(=O)OCC(Oc1ccc(F)c(C(N)=O)c1F)c1nc(-c2ccc(C(F)(F)F)cc2)c(Br)o1 (stereo not drawn) [Compound 207, 2-(5-bromo-4-(4-(trifluoromethyl)phenyl)oxazol-2-yl)-2-(3-carbamoyl-2,4-difluorophenoxy)ethyl ((1-(2-methoxyethyl)-1H-imidazol-5-yl)methyl)carbamate] | 1 to 16 (≈ 1.45 to 23.2 µM)
CC(=O)NCC(Oc1ccc(F)c(C(N)=O)c1F)c1nc(-c2ccc(C(F)(F)F)cc2)c(Br)o1 (stereo not drawn) [Compound 283, 3-(2-acetamido-1-(5-bromo-4-(4-(trifluoromethyl)phenyl)oxazol-2-yl)ethoxy)-2,6-difluorobenzamide] | 1 to 16 (≈ 1.82 to 29.2 µM)
NC(=O)c1c(F)ccc(OC(COC(=O)NCCC(=O)O)c2nc(-c3ccc(C(F)(F)F)cc3)c(Br)o2)c1F (stereo not drawn) [Compound 143, 3-(((2-(5-bromo-4-(4-(trifluoromethyl)phenyl)oxazol-2-yl)-2-(3-carbamoyl-2,4-difluorophenoxy)ethoxy)carbonyl)amino)propanoic acid] | 1 to 16 (≈ 1.61 to 25.7 µM)
NC(=O)c1c(F)ccc(OC(CO)c2csc(-c3ccc(Cl)cc3)n2)c1F (stereo not drawn) [Compound 258, 3-(1-(2-(4-chlorophenyl)thiazol-4-yl)-2-hydroxyethoxy)-2,6-difluorobenzamide] | 1 to 16 (≈ 2.43 to 38.9 µM)
CSc1oc(C(CO)Oc2ccc(F)c(C(N)=O)c2F)nc1-c1ccc(C(F)(F)F)cc1 (stereo not drawn) [Compound 271, 2,6-difluoro-3-(2-hydroxy-1-(5-(methylthio)-4-(4-(trifluoromethyl)phenyl)oxazol-2-yl)ethoxy)benzamide] | 0.25 to 1 (≈ 0.527 to 2.11 µM)
N#Cc1ccc(-c2nc(C(CO)Oc3ccc(F)c(C(N)=O)c3F)oc2Br)cc1 (stereo not drawn) [Compound 80, 3-(1-(5-bromo-4-(4-cyanophenyl)oxazol-2-yl)-2-hydroxyethoxy)-2,6-difluorobenzamide] | 1 to 16 (≈ 2.15 to 34.5 µM)
COc1ccc(-c2nc(C(CO)Oc3ccc(F)c(C(N)=O)c3F)oc2Br)cc1 (stereo not drawn) [Compound 112, 3-(1-(5-bromo-4-(4-methoxyphenyl)oxazol-2-yl)-2-hydroxyethoxy)-2,6-difluorobenzamide] | 1 to 16 (≈ 2.13 to 34.1 µM)
COCCNC(=O)OCC(Oc1ccc(F)c(C(N)=O)c1F)c1nc(-c2ccc(C(F)(F)F)cc2)c(Br)o1 (stereo not drawn) [Compound 164, 2-(5-bromo-4-(4-(trifluoromethyl)phenyl)oxazol-2-yl)-2-(3-carbamoyl-2,4-difluorophenoxy)ethyl (2-methoxyethyl)carbamate] | 0.25 to 1 (≈ 0.411 to 1.64 µM)
CN(CCNC(=O)OCC(Oc1ccc(F)c(C(N)=O)c1F)c1nc(-c2ccc(C(F)(F)F)cc2)c(Br)o1)C(=O)OC(C)(C)C (stereo not drawn) [Compound 153, tert-butyl (2-(((2-(5-bromo-4-(4-(trifluoromethyl)phenyl)oxazol-2-yl)-2-(3-carbamoyl-2,4-difluorophenoxy)ethoxy)carbonyl)amino)ethyl)(methyl)carbamate] | 0.25 to 1 (≈ 0.353 to 1.41 µM)
CC(=O)OCC(Oc1ccc(F)c(C(N)=O)c1F)c1nc(-c2ccc(C(F)(F)F)cn2)c(Br)o1 (stereo not drawn) [Compound 78, 2-(5-bromo-4-(5-(trifluoromethyl)pyridin-2-yl)oxazol-2-yl)-2-(3-carbamoyl-2,4-difluorophenoxy)ethyl acetate] | > 16
CCc1nc([C@@H](CO)Oc2ccc(F)c(C(N)=O)c2F)oc1Br [Compound 275B, (R)-3-(1-(5-bromo-4-ethyloxazol-2-yl)-2-hydroxyethoxy)-2,6-difluorobenzamide] | > 16
CS(=O)(=O)OCC(Oc1ccc(F)c(C(N)=O)c1F)c1nc(-c2ccc(Cl)cc2)c(Cl)o1 (stereo not drawn) [Compound 48, 2-(3-carbamoyl-2,4-difluorophenoxy)-2-(5-chloro-4-(4-chlorophenyl)oxazol-2-yl)ethyl methanesulfonate] | 1 to 16

SMILES | MIC [µg/mL]
CC(=O)OCC(Oc1ccc(F)c(C(N)=O)c1F)c1nc(-c2ccc(C#N)cc2)c(Br)o1 (stereo not drawn) [Compound 76, 2-(5-bromo-4-(4-cyanophenyl)oxazol-2-yl)-2-(3-carbamoyl-2,4-difluorophenoxy)ethyl acetate] | 1 to 16
NC(=O)c1c(F)ccc(OC(CNC(=O)OCc2ccccc2)c2nc(-c3ccc(C(F)(F)F)cc3)co2)c1F (stereo not drawn) [Compound 276, benzyl (2-(3-carbamoyl-2,4-difluorophenoxy)-2-(4-(4-(trifluoromethyl)phenyl)oxazol-2-yl)ethyl)carbamate] | 1 to 16 (≈ 1.78 to 28.5 µM)
COCc1oc([C@@H](CO)Oc2ccc(F)c(C(N)=O)c2F)nc1-c1ccc(OC)cc1 [Compound 304B, (R)-2,6-difluoro-3-(2-hydroxy-1-(5-(methoxymethyl)-4-(4-methoxyphenyl)oxazol-2-yl)ethoxy)benzamide] | 1 to 16 (≈ 2.3 to 36.8 µM)
NC(=O)c1c(F)ccc(O[C@H](CO)c2nc(-c3ccc4occc4c3)c(Br)o2)c1F [Compound 254B, (R)-3-(1-(4-(benzofuran-5-yl)-5-bromooxazol-2-yl)-2-hydroxyethoxy)-2,6-difluorobenzamide] | 1 to 16 (≈ 2.09 to 33.4 µM)
C=CCc1oc(C(CO)Oc2ccc(F)c(C(N)=O)c2F)nc1-c1ccc(C(F)(F)F)cc1 (stereo not drawn) [Compound 66, 3-(1-(5-allyl-4-(4-(trifluoromethyl)phenyl)oxazol-2-yl)-2-hydroxyethoxy)-2,6-difluorobenzamide] | 1 to 16 (≈ 2.14 to 34.2 µM)
NC(=O)c1c(F)ccc(OC(CO)c2nc(C3CCOCC3)c(Br)o2)c1F (stereo not drawn) [Compound 187, 3-(1-(5-bromo-4-(tetrahydro-2H-pyran-4-yl)oxazol-2-yl)-2-hydroxyethoxy)-2,6-difluorobenzamide] | > 16
NC(=O)c1c(F)ccc(OC(COC(=O)N2CCNCC2)c2nc(-c3ccc(C(F)(F)F)cc3)c(Br)o2)c1F (stereo not drawn) [Compound 135, 2-(5-bromo-4-(4-(trifluoromethyl)phenyl)oxazol-2-yl)-2-(3-carbamoyl-2,4-difluorophenoxy)ethyl piperazine-1-carboxylate] | 1 to 16 (≈ 1.61 to 25.8 µM)
NC(=O)c1c(F)ccc(OC(CO)c2nc(-c3ccc(Cl)cc3)co2)c1F (stereo not drawn) [Compound 10, 3-(1-(4-(4-chlorophenyl)oxazol-2-yl)-2-hydroxyethoxy)-2,6-difluorobenzamide] | > 16
CCCc1nc(C(CO)Oc2ccc(F)c(C(N)=O)c2F)oc1Br (stereo not drawn) [Compound 221, 3-(1-(5-bromo-4-propyloxazol-2-yl)-2-hydroxyethoxy)-2,6-difluorobenzamide] | 1 to 16 (≈ 2.47 to 39.5 µM)
NC(=O)c1c(F)ccc(OC(COC(=O)CCC(=O)O)c2nc(-c3ccc(C(F)(F)F)cc3)c(Br)o2)c1F (stereo not drawn) [Compound 74, 4-(2-(5-bromo-4-(4-(trifluoromethyl)phenyl)oxazol-2-yl)-2-(3-carbamoyl-2,4-difluorophenoxy)ethoxy)-4-oxobutanoic acid] | 1 to 16 (≈ 1.65 to 26.3 µM)
NC(=O)c1c(F)ccc(OC(CO)c2nc(-c3ccccc3F)co2)c1F (stereo not drawn) [Compound 223, 2,6-difluoro-3-(1-(4-(2-fluorophenyl)oxazol-2-yl)-2-hydroxyethoxy)benzamide] | > 16
NC(=O)c1c(F)ccc(O[C@H](CO)c2nc(-c3ccc(F)cc3)c(Br)o2)c1F [Compound 279B, (R)-3-(1-(5-bromo-4-(4-fluorophenyl)oxazol-2-yl)-2-hydroxyethoxy)-2,6-difluorobenzamide] | 0.25 to 1 (≈ 0.547 to 2.19 µM)
CNC(=O)CC(Oc1ccc(F)c(C(N)=O)c1F)c1nc(-c2ccc(C(F)(F)F)cc2)c(Br)o1 (stereo not drawn) [Compound 87, 3-(1-(5-bromo-4-(4-(trifluoromethyl)phenyl)oxazol-2-yl)-3-(methylamino)-3-oxopropoxy)-2,6-difluorobenzamide] | 0.25 to 1 (≈ 0.456 to 1.82 µM)
NC(=O)c1c(F)ccc(OC(CO)c2nc(-c3ccc(C(=O)O)cc3)c(Br)o2)c1F (stereo not drawn) [Compound 251, 4-(5-bromo-2-(1-(3-carbamoyl-2,4-difluorophenoxy)-2-hydroxyethyl)oxazol-4-yl)benzoic acid] | > 16
CN(C)C(=O)CCC(Oc1ccc(F)c(C(N)=O)c1F)c1nc(-c2ccc(C(F)(F)F)cc2)c(Br)o1 (stereo not drawn) [Compound 94, 3-(1-(5-bromo-4-(4-(trifluoromethyl)phenyl)oxazol-2-yl)-4-(dimethylamino)-4-oxobutoxy)-2,6-difluorobenzamide] | < 0.25
CC(Oc1ccc(F)c(C(N)=O)c1F)c1nc(Br)cs1 (stereo not drawn) [Compound 2, 3-(1-(4-bromothiazol-2-yl)ethoxy)-2,6-difluorobenzamide] | 1 to 16 (≈ 2.75 to 44.1 µM)
NC(=O)c1c(F)ccc(OC(CO)c2nc(-c3ccccc3F)c(Br)o2)c1F (stereo not drawn) [Compound 229, 3-(1-(5-bromo-4-(2-fluorophenyl)oxazol-2-yl)-2-hydroxyethoxy)-2,6-difluorobenzamide] | > 16
C=CCc1oc(C(C)Oc2ccc(F)c(C(N)=O)c2F)nc1-c1ccc(OC(F)(F)F)cc1 (stereo not drawn) [Compound 17, 3-(1-(5-allyl-4-(4-(trifluoromethoxy)phenyl)oxazol-2-yl)ethoxy)-2,6-difluorobenzamide] | 0.25 to 1 (≈ 0.534 to 2.14 µM)
